The text below walks through data of patent publication US20230301948A1, “REDUCTION OF VIRAL INFECTIONS” (PHOXGEN LIMITED, priority 2020, published 2023).

SMILES strings stand for the structures. Read-outs that look alike come from different tables or passages of the source. Marks after values point to notes of the source that are not given here.

Test [1] deals with T1, cathepsin L protease (Homo sapiens, UniProt P07711).
T1 construct: purchased BPS Bioscience
The format is biochemical.

Test [2] concerns the target T2, SpikeS1-ACE2 interaction (UniProt P0DTC2+Q9BYF1).
T2 construct: Rabbit Fc-tagged SARS-Cov-2 Spike S1 RBD; purchased Cayman Chemical Company
As to the kind of experiment: biochemical. Format: binding, SARS-CoV-2. The following applies: read-out: Percentage inhibition (wrt 100% initial activity).

T1 sequence (P07711 114-333): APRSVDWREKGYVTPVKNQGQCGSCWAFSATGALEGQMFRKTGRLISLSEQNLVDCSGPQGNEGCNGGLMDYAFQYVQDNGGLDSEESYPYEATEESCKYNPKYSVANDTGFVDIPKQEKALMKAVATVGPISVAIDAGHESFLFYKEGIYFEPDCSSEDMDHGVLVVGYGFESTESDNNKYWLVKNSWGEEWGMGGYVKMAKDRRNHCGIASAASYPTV

Turning to `CC(C)C[C@H](NC(=O)[C@H]1O[C@@H]1C(=O)O)C(=O)NCCCCN=C(N)N` [Composition E-64, E-64], the Percentage inhibition in test [1] (0.0001 µM) is -15.5%; in test [1] (0.001 µM), -1.1%; in test [1] (0.01 µM) it was 17.2 ** %; in test [1] (0.1 µM), 56.3 ** %.
`Cc1cc(O)c2c(c1)C(=O)c1cc(O)cc(O)c1C2=O` [Emodin]: in test [2] (0.01 µg/ml), the inhibition at 0.01 µg/mL is 35.5%. For the same molecule, in test [2] (0.1 µg/ml), the inhibition at 0.1 µg/mL worked out at 38.9%. Further, the inhibition at 1 µg/mL in test [2] (1 µg/ml) was found to be 44.3%. Moreover, the inhibition at 10 µg/mL in test [2] (10 µg/ml) was 48.9%. In addition, the inhibition at 50 µg/mL in test [2] (50 µg/ml) is 62.8%.
